Data: PubChem BioAssay (NCI)
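Tested at 5 concentrations; 48 h exposure; 96-well plates; endpoints linearly interpolated, else capped at highest concentration. Here, GI50 denotes the concentration required for 50% inhibition of growth. TGI: concentration producing complete growth inhibition.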

Tested on: MDA-MB-468 breast
Test: NCI tumour cell line growth inhibition, 48 h

Row | Structure (SMILES) | GI50 | TGI
1 | Oc1ccccc1-c1nnc(SCc2ccc(O)c3ncccc23)n1-c1ccccc1 | 349 nM | 9.29 µM
2 | Oc1ccc(CSc2nnc(-c3ccccc3)o2)c2cccnc12 | 2210 nM | > 100 µM
3 | O=C(Nc1cc(C(F)(F)F)cc(C(F)(F)F)c1)Nc1ccc2oc(=O)ccc2c1 | 641 nM | 4.41 µM
4 | O=C1OC(c2ccc(O)c(Cl)c2)(c2ccc(O)c(Cl)c2)c2ccc(Br)c3cccc1c23 (tested in a mixture with another compound) | 14600 nM | 34.1 µM
5 | CCCCC(=O)N/N=C/c1cc(I)cc(I)c1O | 2850 nM | 18.4 µM
6 | COc1cnc2c(c1)C(=O)c1c-2n(CCCn2ccnc2)c(=O)c2cc(Cl)ccc12 | 25.2 nM | 0.0855 µM
7 | Brc1ccc([I+]c2ccc(Br)cc2)cc1 | 541 nM | 3.52 µM
8 | COC(CCP(=O)(c1ccccc1)c1ccccc1)(C(=O)c1ccccc1)c1ccccc1 (stereo not given) | 2050 nM | 11.7 µM
9 | COCCOC(=O)C1=C(C)NC2=C(C(=O)CC(c3ccccc3OC)C2)C1c1cccc(O)c1 (stereo not given) | 3920 nM | 21.9 µM
10 | CCC(Sc1nnc2c3ccccc3n(CC)c2n1)C(=O)Nc1ccccc1OC (stereo not given) | 1370 nM | 4.23 µM
11 | Cn1c(=O)cc2c3c(c(NCCCO)ccc31)C(=O)c1ccccc1-2 | 2110 nM | 9.66 µM
12 | CCCCCCCCCCCCCCCc1cc(O)ccc1N | 2040 nM | 6.3 µM
13 | CC(C)(C)c1ccc([I+]c2ccc(C(C)(C)C)cc2)cc1 | 400 nM | 2.28 µM
14 | ClCCN(CCCl)c1ccc(-n2cnc3c(Cl)ncnc32)cc1 | 1970 nM | 4.18 µM
15 | C(=C1c2ccccc2-c2ccccc21)c1ccccn1 | 2640 nM | 14.7 µM
16 | CS(=O)(=O)CCNCc1ccc(-c2ccc3ncnc(Nc4ccc(OCc5cccc(C(F)(F)F)c5)cc4)c3c2)o1 | 3390 nM | 8.6 µM
17 | C#C[C@]1(O)CC[C@H]2[C@@H]3CC=C4c5sc(-c6ccc(F)cn6)nc5CC[C@]4(C)[C@H]3CC[C@@]21C | 2990 nM | 13.7 µM
18 | C#C[C@]1(O)CC[C@H]2[C@@H]3CC=C4c5sc(N=C(N)N)nc5CC[C@]4(C)[C@H]3CC[C@@]21C | 741 nM | 2.2 µM
19 | COc1ccc(O)c(C(=O)c2ccc(C(=O)O[C@@H]3CCCNC[C@H]3NC(=O)c3ccncc3)cc2)c1F | 511 nM | > 23.7 µM
20 | Nc1cc(-c2ccccc2)ccc1O | 42300 nM | > 100 µM
